Source: patent publication US20210285004A1, “Bidirectional Constitutive Promoter and Uses, and Transfection Methods for B. Microti” (MJKS Research LLC, priority 2020, published 2021)

Key:
[1] = system: B. microti; assay: Promoter strength comparison by reporter gene analysis (RLU, luminometer); assay type: cell-based, Babesia microti; settings: reporter gene construct, FIG. 5
Description: In FIG. 5, the improved strength of the Babesia promoter (here: B. microti or “BM”) compared to a strong constitutive promoter (here: PBANKA DHFR of SEQ ID NO:2) is shown.
The strength of a Babesia-based promoter (for example, without limitation, the BM-CTQ41297 promoter of SEQ ID NO:1) and that of a strong constitutive promoter (here: PBANKA DHFR, SEQ ID NO:2) are determined and compared, representative results are shown in FIG. 5. A promoter (SEQ ID NO:1, from B. microti or “BM”) is compared to PBANKA-DHFR (known to be a strong constitutive promoter), a blank/negative control, and, as a further negative control, human EF1b promoter. The promoter constructs are prepared as described in examples 1 and 4, respectively. Relative Light Units (RLU) are measured by luminometer. […] Similarly the constitutive promoter human EF1b is outperformed by a Babesia-based promoter, including e.g. by the B. microti promoter (as shown in FIG. 5). As determined by reporter gene analysis, the Babesia promoter is at least about 5 to 6 times stronger compared to PBANKA-DHFR (a promoter derived from a rodent malaria parasite Plasmodium berghei with strong constitutive activity commonly used for the expression of reporter genes in various apicomplexan parasites), see results shown in FIG. 5.

[2] = system: B. microti; assay: Transient transfection of B. microti with promoter constructs, reporter expression by fluorescence microscopy; assay type: cell-based, Babesia microti; settings: two days after transfection, infected RBC from C57BL/6J mice
Description: A transfection of parasites with a parasite promoter (here: B. microti & SEQ ID NO:1) is performed as follows. A schematic representation of the genomic location of the B. microti promoter of SEQ ID NO:1 (BM-CTQ41297 promoter) is shown in FIG. 1a. As shown in the figure, the promoter is flanked by the two different genes. The episomal constructs may be based on a standard cloning vector such as Bluescript (pBSK (+)) and modified for expression accordingly; the constructs used are shown schematically in FIG. 1b. As a negative control (B), B. microti parasites transfected with a blank vector without reporter gene insert (but with BM-CTQ41297 promoter and 3′UTR, compare SEQ ID NO: 35). […] Electroporation for both genes is performed as follows. […]
After electroporation, the parasites are immediately injected into C57BL/6J mice and after two days of transfection analyzed by fluorescence microscopy as follows: a drop of blood is collected in a 1.5 ml tube containing heparin from the tail of mice infected with transfected parasites. […] The transfected parasites are analyzed by fluorescence microscopy to check if transfected parasites express the reporter gene (here: GFP) using a fluorescence microscope, e.g. Axio Imager M2®, Zeiss®, Dublin, Calif.). The transfected parasites are reporter gene (e.g. here: GFP) positive as confirmed by fluorescence microscopy and shown in FIG. 1c, see C. […]

## PBANKA-DHFR: Strong constitutive DHFR promoter from Plasmodium berghei, SEQ ID NO:2, 2262 bp [reference compound]
[1]
  RLU (Relative Light Unit) values: about 60 RLU
[2]
  reporter gene expression (GFP/mCherry fluorescence): expression of GFP
